Data taken from US20240067603A1, “CUBANYL BIGUANIDE COMPOUNDS” (REGENTS OF THE UNIVERSITY OF MINNESOTA, priority 2020, published 2024).
Entries after “also recorded” stand apart in the source; their conditions may differ.

What was measured:
[1] = system: EO771; experiment: Oxygen consumption rate (OCR), EO771; format: cell-based, mouse (C57BL/6)
Method: Measurement of oxygen consumption rate (OCR). Cells were maintained in growth medium consisting of 10% FBS at 37° C. with 5% CO2 and seeded at 25,000 cells per well in a 96-well XF96 cell culture microplates (Agilent, Santa Clara, CA). An 96 well XF sensor cartridge was hydrated and equilibrated with 200 ul calibrant in each well at 37° C. without CO2 overnight. Growth media was replaced with 150 μL DMEM based assay media (a non-buffered medium including 2 mM L-glutamine but no sodium bicarbonate (buffering agent), glucose, or sodium pyruvate, Agilent, Santa Clara, CA) the next day and cells were incubated CO2 free for 1 hour before the measurement of OCR by a Seahorse XFe Extracellular Flux Analyzer (Agilent, Santa Clara, CA), which measures uptake and excretion of metabolic end products in real time. After baseline measurements, 20 μl assay medium containing control vehicle or drugs were injected into corresponding wells. OCRs were measured periodically and can be reported in pmoles/minute or normalized against baseline measurements before treatment.

[2] = system: ERα; experiment: Nuclear translocation of ERα in MCF-7 cells; format: cell-based, human; settings: 10 μM, 2 hours, FIG. 6
Method: FIG. 6. […] A. representative images (Blue: nuclei; Red: ERα) from an experiment. B. Percentage change of nuclear ERα density normalized to nuclear DNA stained by Hoechst. MCF-7 cells (1.5×10^4 cells/well) were seeded on uSlide (8 wells, Ibidi, cat #80826) and cultured with complete culture medium (MEM medium with Earle's salts & L-glutamine) containing 10% FBS, 10 mM HEPES, 2 mM glutamine and 100 U penicillin and 100 U streptomycin for almost 70 hours. Then the cells were starved in serum, phenol red and antibiotics free MEM medium for almost 16 hours, followed with HCB (10 μM) or vehicle (0.01% DMSO) treatment for 2 hours in starvation medium. Then the cells were fixed, permeabilized and probed with monoclonal antibody against ERα (Abcam, Cat #16660, primary antibody) and Texas Red-conjugated goat anti rabbit IgG (Thermo Fisher Scientific, Cat #T-6391, secondary antibody). Nuclei were stained with Hoechst dye (Thermo Scientific, Cat #62249). The nuclear ERαas were analyzed with confocal microscopy. Four sites per well were selected randomly for collecting the image data. The density of fluorescence was measured by ImageJ. […] Intensities of lights in each ROI were measured in the blue channel (nuclei) and red (Texas red, estrogen receptor α) channel. […] Results normalized to control are expressed as means±S.D. (n=7). […]

[3] = biological target: CYP3A4 (Homo sapiens, UniProt P08684); experiment: Midazolam hydroxylation by CYP3A4 in Nanodiscs; format: biochemical
Method: Titration of ˜6 uM CYP3A4 in POPC Nanodiscs was done using 16 mM stock solution obtained by 6-fold dilution of the original 100 mM DMSO solution in methanol. Aliquots of 0.1-0.2 μL were added to 120 μL solution of CYP3A4-ND in semi-micro cell (10 mm pathlength). Spectra with background corrected for scattering are shown in FIG. 17, and titration data points in FIG. 18.
These concentrations were selected based on IC50 for arachidonic acid metabolism mentioned in the first e-mail (low HCB concentration) and on our titration results. We used seven MDZ concentrations and measured both 1 OH and 4 OH hydroxy-MDZ products using HPLC with absorbance detection at 240 nm. Results are shown below in FIG. 19.

[4] = system: EO771; experiment: Inhibition of mammary carcinoma cell line EO771; format: cell-based, mouse (C57BL/6); settings: Mus musculus; Table 5; EO771, C57BL/6, Basal, HER2−
Method: 3-(4,5-Dimethylthiazol-2-yl)-2,5-diphenyltetrazolium Bromide (MTT) Cell Proliferation Assay. To cells grown in 96-well-tissue culture plate, 20 μl/well of MTT solution (5 mg/ml in PBS) was added. After 1-2 hours incubation at 37° C., the plate was centrifuged. Supernatant was discarded and 100 μl DMSO was added to dissolve water insoluble formazan, and the absorbance was read at 540 nm with a plate reader.

CYP3A4, sequence (P08684 whole entry): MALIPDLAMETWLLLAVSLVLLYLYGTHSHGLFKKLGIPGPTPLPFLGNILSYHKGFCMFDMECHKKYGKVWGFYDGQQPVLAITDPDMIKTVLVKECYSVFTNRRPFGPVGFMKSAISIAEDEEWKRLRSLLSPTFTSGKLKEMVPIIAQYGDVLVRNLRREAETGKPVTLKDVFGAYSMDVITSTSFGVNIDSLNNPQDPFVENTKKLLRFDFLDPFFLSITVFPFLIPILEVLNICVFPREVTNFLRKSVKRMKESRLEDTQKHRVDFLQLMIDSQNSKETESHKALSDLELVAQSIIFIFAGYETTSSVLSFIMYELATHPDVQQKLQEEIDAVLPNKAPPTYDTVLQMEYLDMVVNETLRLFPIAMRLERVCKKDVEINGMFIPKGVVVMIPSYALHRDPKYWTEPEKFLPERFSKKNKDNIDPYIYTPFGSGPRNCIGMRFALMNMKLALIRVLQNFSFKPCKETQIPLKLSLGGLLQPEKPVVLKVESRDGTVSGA

SMILES	OCR Inhibition [HCB] (uM) v vs. control (P < 0.05) [1]	nuclear translocation of estrogen receptor (ER-α) [2]	inhibition of MDZ hydroxylation ([3]; 5.9 uM HCB, CYP3A4 Nanodiscs)	effect on the 1 OH/4 OH ratio of MDZ hydroxylation ([3]; 64 uM HCB)	IC50 [4]
CCCCCCNC(=N)NC(=N)NCC12C3C4C5C3C1C5C42 (centres unmarked) [HCB, Hexyl Cubanomethyl Biguanide]	20 µM	significantly decrease; also recorded: decreases nuclear translocation of ERα	Significant inhibition	clear and reproducible effect	
CCCCCCNC(=N)NC(=N)NCc1ccccc1 [HBB, N1-hexyl-N5-benzyl-biguanide]					21.7 µM
